Like-named read-outs stand apart in the source and are kept apart here.
Columns and labels:
[1] = target: FGFR2 K641R (Homo sapiens (Human), UniProt P21802, K641R); assay: HTRF kinase activity assay, FGFR2 K641R; format: biochemical
Protocol: (§1) Activity Experiment 8: Inhibition of FGFR Family Kinases' Activity by Prepared Compounds The compounds were assayed for activity IC50 against the FGFR family kinases. Related kinases were purchased from Carna and Signalchem. The activity assay method for the related kinases was established by homogeneous time-resolved fluorescence (HTRF), and the inhibitory activity of the compounds was determined. […] The kinases and compounds were pre-incubated for 10 min, and then ATP and substrate were added to start the reaction. All the enzyme-catalyzed reactions were carried out at 25° C. for 40 min. After the enzyme-catalyzed reactions were completed, 5 μL of TK antibody-cryptate and streptavidin-XL665 (the reaction concentration of streptavidin-XL665 was 62.5 nM) were added to the reaction mixtures, and the mixtures were incubated at 25° C. for another 60 min.

[2] = target: FGFR2 V564F (Homo sapiens (Human), UniProt P21802, V564F); assay: HTRF kinase activity assay, FGFR2 V564F; format: biochemical
Protocol: as §1

[3] = tested on: Ba/F3 KIF5B-RET-V804M cells; assay: Ba/F3 KIF5B-RET-V804M cell inhibition (CellTiter-Glo); format: cell-based; conditions: Mus musculus, BaF3, 72 h
Protocol: (§2) Activity Experiment 3: Inhibition of Ba/F3 KIF5B-RET Cells by Prepared Compounds Ba/F3 KIF5B-RET, Ba/F3KIF5B-RET-V804M, Ba/F3 RET-M918T and Ba/F3 KIF5B-RET-G810R cells growing in log phase were harvested and counted using a […]. The cell viability was determined by the trypan blue exclusion method, and the cell viability was kept over 90%. The cell concentration was adjusted, and 90 μL of the cell suspension was added to a 96-well plate. The cells in the 96-well plate were incubated overnight at 37° C. with 5% CO2 and 95% humidity. Corresponding gradient concentrations of drug solutions (the maximum concentration was 1000 nM) were added to the 96-well plate inoculated with cells at 10 μL/well. Triplicate wells were set per drug concentration, and the final concentration of DMSO was 0.1%. The drug-treated cells in the 96-well plate were incubated for another 72 h at 37° C. with 5% CO2 and 95% humidity. After the drug treatment was completed, 100 μL of CellTiter-Glo reagent was added to each well. The cell plate was shaken on an orbital shaker for 5 min to lyse the cells and then let stand at room temperature for 20 min to stabilize the luminescence signals, and then the luminescence values were read. The data were analyzed using the GraphPad Prism 5.0 software. Dose-response curves were fit to the data using nonlinear S-curve regression, and IC50 was calculated from the curves.

[4] = tested on: Ba/F3 KIF5B-RET-G810R cells; assay: Ba/F3 KIF5B-RET-G810R cell inhibition (CellTiter-Glo); format: cell-based; conditions: Mus musculus, BaF3, 72 h, maximum concentration 1000 nM
Protocol: as §2

[5] = target: FGFR3 V555M (Homo sapiens (Human), UniProt P22607, V555M); assay: HTRF kinase activity assay, FGFR3 V555M; format: biochemical
Protocol: (§3) Activity Experiment 8: Inhibition of FGFR Family Kinases' Activity by Prepared Compounds The compounds were assayed for activity IC50 against the FGFR family kinases. Related kinases were purchased from Carna and Signalchem.
(§4) The activity assay method for the related kinases was established by homogeneous time-resolved fluorescence (HTRF), and the inhibitory activity of the compounds was determined. A 5 μL reaction mixture was prepared, comprising 1× enzymatic buffer (Cisbio, HTRF KinEASE™-TK), 5 mM MgCl2, 1 mM DTT, 1 μM TK substrate-biotin (Cisbio, HTRF KinEASE™-TK), corresponding concentrations of ATP and related kinases, and gradient concentrations of compounds.
(§5) The kinases and compounds were pre-incubated for 10 min, and then ATP and substrate were added to start the reaction. All the enzyme-catalyzed reactions were carried out at 25° C. for 40 min. After the enzyme-catalyzed reactions were completed, 5 μL of TK antibody-cryptate and streptavidin-XL665 (the reaction concentration of streptavidin-XL665 was 62.5 nM) were added to the reaction mixtures, and the mixtures were incubated at 25° C. for another 60 min.

[6] = target: FGFR4 (Homo sapiens (Human), UniProt P22455); assay: HTRF kinase activity assay, FGFR4; format: biochemical
Protocol: as §3, §4, §5

[7] = Metabolic stability in human liver microsomes; conditions: human liver microsomes, NADPH, Table 3; for microsomal CLint at 1 µM: CLint (μL/min/mg); for half-life at 1 µM: T1/2 (min)
[8] = target: FGFR2 V564I (Homo sapiens (Human), UniProt P21802, V564I); assay: HTRF kinase activity assay, FGFR2 V564I; format: biochemical
Protocol: as §1

[9] = Pharmacokinetic assay in rats; format: in vivo, rat; conditions: for CL / Vz / F / AUC(0-inf) / AUC(0-t) / Cmax / Tmax / clearance / half-life / Vd: SD male rats; for F: p.o. 5 mg/kg vs i.v. 1 mg/kg; for AUC(0-inf) / AUC(0-t) / Cmax / Tmax / clearance / half-life / Vd: rat, plasma; for Vd: read-out: Vz
[10] = target: FGFR1 V561M (Homo sapiens (Human), UniProt P11362, V561M); assay: HTRF kinase activity assay, FGFR1 V561M; format: biochemical
Protocol: as §3, §4, §5

[11] = tested on: BA/F3 KIF5B-RET graft tumor; assay: Mouse subcutaneous BA/F3 KIF5B-RET graft tumor model; format: in vivo
[12] = Tissue distribution assay in mice; format: in vivo, mouse; conditions: for concentration at 4 h: male, mouse
Protocol: Male NVSG mice (weighing 20-25 g) were orally administered compound 94 and Loxo-292 at a dose of 30 mg/kg. The plasma and tissue samples of the liver, the brain and the lungs and the like of the animals are collected 4 h after administration. Blood plasma collection: The whole blood was collected at about 80-100 μL in EDTA-containing EP tubes and centrifuged at 4000 g for 5 min, and then the upper plasma was collected and stored at −80° C.
Tissue collection: After the animals were euthanized, the tissues were collected and snap-frozen in liquid nitrogen, 5 mL of homogenization solution (50% acetonitrile) was added per gram of tissue. The tissues were processed into homogenates in a tissue homogenizer and stored at −80° C. The concentration of compound in the plasma and tissue samples was quantified by liquid chromatography-tandem mass spectrometry (LC-MS/MS).

[13] = 30 mg/kg b.i.d. intragastric, Day 11
[14] = 30 mg/kg b.i.d. intragastric, Day 15
[15] = NVSG mice, oral 30 mg/kg, 4 h after administration

Sequence of FGFR2 V564I (P21802 22-821 V564I): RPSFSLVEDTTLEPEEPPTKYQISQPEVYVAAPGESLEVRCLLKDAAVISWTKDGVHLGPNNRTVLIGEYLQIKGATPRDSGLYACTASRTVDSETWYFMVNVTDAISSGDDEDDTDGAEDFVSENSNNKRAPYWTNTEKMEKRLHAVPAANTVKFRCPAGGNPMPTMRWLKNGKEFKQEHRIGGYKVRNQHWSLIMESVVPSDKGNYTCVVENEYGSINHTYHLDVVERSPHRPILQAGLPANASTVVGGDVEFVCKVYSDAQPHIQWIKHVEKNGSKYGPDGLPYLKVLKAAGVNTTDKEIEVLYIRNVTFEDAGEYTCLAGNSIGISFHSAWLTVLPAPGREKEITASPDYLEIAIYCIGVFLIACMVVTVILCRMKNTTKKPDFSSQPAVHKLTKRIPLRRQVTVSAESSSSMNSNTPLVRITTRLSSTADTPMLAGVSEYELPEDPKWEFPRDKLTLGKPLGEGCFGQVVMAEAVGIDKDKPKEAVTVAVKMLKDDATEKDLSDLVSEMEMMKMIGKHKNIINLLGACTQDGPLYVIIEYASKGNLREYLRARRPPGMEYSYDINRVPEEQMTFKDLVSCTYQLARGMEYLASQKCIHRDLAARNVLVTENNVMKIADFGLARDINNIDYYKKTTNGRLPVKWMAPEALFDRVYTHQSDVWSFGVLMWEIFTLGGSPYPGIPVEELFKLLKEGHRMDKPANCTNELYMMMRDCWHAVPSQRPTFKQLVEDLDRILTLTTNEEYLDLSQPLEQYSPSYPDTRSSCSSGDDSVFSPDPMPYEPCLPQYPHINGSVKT
Sequence of FGFR2 V564F (P21802 22-821 V564F): as the sequence (P21802 22-821 V564I) above, with I543F counted along it
Sequence of FGFR1 V561M (P11362 22-822 V561M): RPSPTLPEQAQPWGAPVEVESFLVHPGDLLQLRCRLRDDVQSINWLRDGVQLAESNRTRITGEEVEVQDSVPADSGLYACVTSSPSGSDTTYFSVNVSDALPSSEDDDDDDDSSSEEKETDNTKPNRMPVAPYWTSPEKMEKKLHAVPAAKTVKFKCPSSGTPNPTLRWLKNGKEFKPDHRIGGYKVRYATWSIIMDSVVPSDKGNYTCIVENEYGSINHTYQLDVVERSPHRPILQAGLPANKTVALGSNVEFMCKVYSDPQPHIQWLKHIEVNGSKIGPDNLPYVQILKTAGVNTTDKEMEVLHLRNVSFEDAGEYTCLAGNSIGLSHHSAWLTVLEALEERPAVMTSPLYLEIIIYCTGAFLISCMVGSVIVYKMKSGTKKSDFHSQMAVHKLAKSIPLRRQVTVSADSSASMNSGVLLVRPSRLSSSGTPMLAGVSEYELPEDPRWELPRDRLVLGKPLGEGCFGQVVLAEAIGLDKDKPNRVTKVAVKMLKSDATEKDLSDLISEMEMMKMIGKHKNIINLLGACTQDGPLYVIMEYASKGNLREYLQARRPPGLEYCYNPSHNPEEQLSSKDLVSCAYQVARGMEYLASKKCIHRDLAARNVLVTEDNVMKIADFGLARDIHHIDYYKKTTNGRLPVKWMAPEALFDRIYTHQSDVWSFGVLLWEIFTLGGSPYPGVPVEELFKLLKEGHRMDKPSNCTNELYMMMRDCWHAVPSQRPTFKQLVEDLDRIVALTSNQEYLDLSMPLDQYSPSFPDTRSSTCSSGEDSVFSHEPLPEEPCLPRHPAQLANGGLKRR
Sequence of FGFR2 K641R (P21802 22-821 K641R): as the sequence (P21802 22-821 V564I) above, with I543V, K620R counted along it
Sequence of FGFR3 V555M (P22607 23-806 V555M): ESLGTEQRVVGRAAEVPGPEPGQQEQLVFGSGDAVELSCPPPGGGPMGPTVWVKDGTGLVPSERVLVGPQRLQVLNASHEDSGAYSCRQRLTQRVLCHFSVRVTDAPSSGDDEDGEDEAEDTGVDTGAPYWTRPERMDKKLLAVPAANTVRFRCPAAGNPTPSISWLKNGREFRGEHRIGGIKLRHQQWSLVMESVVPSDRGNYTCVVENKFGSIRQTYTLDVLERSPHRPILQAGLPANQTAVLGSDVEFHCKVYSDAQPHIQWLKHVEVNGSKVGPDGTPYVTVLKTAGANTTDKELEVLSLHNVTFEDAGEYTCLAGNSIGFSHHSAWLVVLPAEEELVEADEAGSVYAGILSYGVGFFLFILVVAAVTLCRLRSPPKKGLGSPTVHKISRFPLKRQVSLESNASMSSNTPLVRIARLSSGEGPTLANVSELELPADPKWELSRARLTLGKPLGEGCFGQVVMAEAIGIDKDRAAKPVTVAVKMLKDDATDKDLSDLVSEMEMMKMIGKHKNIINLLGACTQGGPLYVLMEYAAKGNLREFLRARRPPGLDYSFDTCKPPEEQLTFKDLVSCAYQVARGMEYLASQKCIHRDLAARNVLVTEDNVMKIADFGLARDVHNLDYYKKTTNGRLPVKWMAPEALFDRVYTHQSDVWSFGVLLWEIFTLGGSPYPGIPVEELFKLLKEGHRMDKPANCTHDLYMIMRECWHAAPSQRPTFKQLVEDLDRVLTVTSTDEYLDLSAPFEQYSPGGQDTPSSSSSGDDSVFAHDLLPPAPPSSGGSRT
Sequence of FGFR4 (P22455 22-802): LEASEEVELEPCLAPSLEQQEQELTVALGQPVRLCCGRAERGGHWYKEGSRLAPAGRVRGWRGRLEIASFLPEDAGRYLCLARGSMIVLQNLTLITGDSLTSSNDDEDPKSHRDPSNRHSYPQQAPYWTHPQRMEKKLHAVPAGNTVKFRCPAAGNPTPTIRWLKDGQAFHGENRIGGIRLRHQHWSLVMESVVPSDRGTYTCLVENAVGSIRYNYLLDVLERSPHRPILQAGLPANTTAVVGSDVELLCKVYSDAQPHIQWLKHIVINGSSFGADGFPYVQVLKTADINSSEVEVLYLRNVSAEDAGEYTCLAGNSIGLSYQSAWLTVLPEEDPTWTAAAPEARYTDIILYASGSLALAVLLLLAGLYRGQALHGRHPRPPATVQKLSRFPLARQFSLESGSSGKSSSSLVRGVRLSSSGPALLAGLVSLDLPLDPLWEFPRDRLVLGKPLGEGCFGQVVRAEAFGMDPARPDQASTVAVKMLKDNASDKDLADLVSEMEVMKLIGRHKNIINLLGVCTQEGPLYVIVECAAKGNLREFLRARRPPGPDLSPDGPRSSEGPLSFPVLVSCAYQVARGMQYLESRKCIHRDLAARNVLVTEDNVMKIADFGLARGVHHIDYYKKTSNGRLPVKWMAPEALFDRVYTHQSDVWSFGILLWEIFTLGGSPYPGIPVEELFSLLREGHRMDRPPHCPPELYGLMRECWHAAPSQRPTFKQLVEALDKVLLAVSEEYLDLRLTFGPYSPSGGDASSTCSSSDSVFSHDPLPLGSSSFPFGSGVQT

With `[2H]C([2H])([2H])N1CCN(c2cc(-c3ccc(N4CC5CC(C4)N5Cc4ccc(OC)nc4)nc3)c3c(C#N)cnn3c2)CC1` [Compound 94] the IC50 [1] was 7.39 nM, the IC50 [2] was 3.58 nM and the IC50 [3] was 99 nM. The IC50 [4] was 464 nM, the IC50 [5] was 74.3 nM and the IC50 [6] was 595 nM. It also gave a microsomal CLint at 1 µM [7] of 41.2 µL/min/mg, a half-life at 1 µM [7] of 0.56 h and an IC50 [8] of 45.6 nM. It also gave a CL ([9]; p.o. 5 mg/kg) of 59.4597 mL/min/kg, a Vz ([9]; p.o. 5 mg/kg) of 68.49214 L/kg and an F [9] of 98.02%. For the same molecule, the “Clearance time in rats compared with Loxo-292” value ([9]; after oral administration) was “took longer to be cleared”, the “Bioavailability compared with Loxo-292” value ([9]; after oral administration, rats) was “higher bioavailability” and the AUC(0-inf) ([9]; iv, i.v. 1 mg/kg) was 335 ng·h/mL. The AUC(0-t) ([9]; iv, i.v. 1 mg/kg) was 240 ng·h/mL, the Cmax ([9]; iv, i.v. 1 mg/kg) was 42.3 ng/mL and the Tmax ([9]; iv, i.v. 1 mg/kg) was 0.08 h. It also gave a clearance ([9]; iv, i.v. 1 mg/kg) of 51.2 mL/min/kg, a half-life ([9]; iv, i.v. 1 mg/kg) of 13.3 h and a Vd ([9]; iv, i.v. 1 mg/kg) of 57.6 L/kg. For the same molecule, the AUC(0-inf) ([9]; po, p.o. 5 mg/kg) was 1640 ng·h/mL, the AUC(0-t) ([9]; po, p.o. 5 mg/kg) was 1020 ng·h/mL and the Cmax ([9]; po, p.o. 5 mg/kg) was 63.9 ng/mL. For the same molecule, the Tmax ([9]; po, p.o. 5 mg/kg) was 4 h, the half-life ([9]; po, p.o. 5 mg/kg) was 15.8 h and the IC50 [10] was 1400 nM. For the same molecule, the “Volume of graft tumor (mean ± SD)” value ([11]; 30 mg/kg b.i.d. intragastric, Day 0) was 96.85 ± 2.24 mm^3, the “Volume of graft tumor (mean ± SD)” value [11, 13] was 12.19 ± 27.25 mm^3 and the “Volume of graft tumor (mean ± SD)” value [11, 14] was 8.00 ± 17.89 mm^3. The “Volume of graft tumor (mean ± SD)” value ([11]; 30 mg/kg q.d. intragastric, Day 0) was 96.95 ± 1.48 mm^3, the “Volume of graft tumor (mean ± SD)” value ([11]; 30 mg/kg q.d. intragastric, Day 11) was 14.57 ± 23.42 mm^3 and the “Volume of graft tumor (mean ± SD)” value ([11]; 30 mg/kg q.d. intragastric, Day 15) was 9.73 ± 16.31 mm^3. The “Volume of graft tumor (mean ± SD)” value ([11]; 60 mg/kg q.d. intragastric, Day 0) was 96.76 ± 2.34 mm^3, the “Volume of graft tumor (mean ± SD)” value ([11]; 60 mg/kg q.d. intragastric, Day 11) was 6.11 ± 14.98 mm^3 and the “Volume of graft tumor (mean ± SD)” value ([11]; 60 mg/kg q.d. intragastric, Day 15) was 3.75 ± 9.19 mm^3. The “Concentration of compound in brain” value [12, 15] was 2883.99 ng/g, the “Concentration of compound in liver” value [12, 15] was 70199.89 ng/g and the “Concentration of compound in lung” value [12, 15] was 87220.49 ng/g. For the same molecule, the “Concentration of compound in plasma” value [12, 15] was 3174.97 ng/mL and the “Concentration distribution in tissues of target organs of mice compared with Loxo-292” value ([12]; after oral administration) was “higher concentration distribution”.
`COc1ccc(CN2C3CC2CN(c2ccc(-c4cc(OCC(C)(C)O)cn5ncc(C#N)c45)cn2)C3)cn1` [Selpercatinib, selpercatinib, reference compound] gave an IC50 [1] of 11.2 nM, an IC50 [2] of 12.9 nM and an IC50 [3] of 38.4 nM. It also gave an IC50 [4] greater than 1000 nM, an IC50 [5] of 188 nM and an IC50 [6] of 475 nM. It also gave a microsomal CLint at 1 µM [7] of 60.4 µL/min/mg, a half-life at 1 µM [7] of 0.382 h and an IC50 [8] of 97.6 nM. The CL ([9]; p.o. 5 mg/kg) was 7.6 mL/min/kg, the Vz ([9]; p.o. 5 mg/kg) was 2.039 L/kg and the F [9] was 66.07%. For the same molecule, the AUC(0-inf) ([9]; iv, i.v. 1 mg/kg) was 3330 ng·h/mL, the AUC(0-t) ([9]; iv, i.v. 1 mg/kg) was 3310 ng·h/mL and the Cmax ([9]; iv, i.v. 1 mg/kg) was 1260 ng/mL. The Tmax ([9]; iv, i.v. 1 mg/kg) was 0.083 h, the clearance ([9]; iv, i.v. 1 mg/kg) was 5.1 mL/min/kg and the Vd ([9]; iv, i.v. 1 mg/kg) was 1.61 L/kg. The AUC(0-inf) ([9]; po, p.o. 5 mg/kg) was 11000 ng·h/mL, the AUC(0-t) ([9]; po, p.o. 5 mg/kg) was 10900 ng·h/mL and the Cmax ([9]; po, p.o. 5 mg/kg) was 1040 ng/mL. It also gave a Tmax ([9]; po, p.o. 5 mg/kg) of 2.67 h, a half-life ([9]; po, p.o. 5 mg/kg) of 3.11 h and an IC50 [10] of 1950 nM. For the same molecule, the “Volume of graft tumor (mean ± SD)” value [11, 13] was 19.68 ± 17.97 mm^3, the “Volume of graft tumor (mean ± SD)” value [11, 14] was 13.59 ± 12.43 mm^3 and the concentration at 4 h ([12]; brain, NVSG mice, oral 30 mg/kg, 4 h after administration, read-out: Concentration of compound in brain) was 88.3 ng/g. For the same molecule, the concentration at 4 h ([12]; liver, NVSG mice, oral 30 mg/kg, 4 h after administration, read-out: Concentration of compound in liver) was 12900 ng/g, the concentration at 4 h ([12]; lung, NVSG mice, oral 30 mg/kg, 4 h after administration, read-out: Concentration of compound in lung) was 7190 ng/g and the concentration at 4 h ([12]; plasma, NVSG mice, oral 30 mg/kg, 4 h after administration, read-out: Concentration of compound in plasma) was 14600 ng/mL.

From patent publication US20230322769A1, “HETEROAROMATIC RING COMPOUND AS RET KINASE INHIBITOR, AND PREPARATION AND USE THEREOF” (JIANGSU CHIA TAI FENGHAI PHARMACEUTICAL CO., LTD., priority 2020, published 2023)
